In article PMC10041525, “New Dual Inhibitors of Bacterial Topoisomerases with Broad-Spectrum Antibacterial Activity and In Vivo Efficacy against Vancomycin-Intermediate Staphylococcus aureus” (Journal of Medicinal Chemistry, 2023):
≈ marks a conversion by molar mass, not a printed value. Where “and” joins values, the source holds several entries; their conditions need not be identical. Identical values can stand only once. Like-named read-outs stand apart in the source and are kept apart here.

Assays:
[1] = tested on: S. aureus ATCC 700699 (VISA); format: in vivo, female CD-1 mice; settings: for Change in log10CFU/gr of thigh from 2 hour control / Change in log10CFU/gr of thigh from 26 hours control / Average log10CFU/gr of thigh: IV; for Average log10CFU/gr of thigh: 26 h
Experimental: The neutropenic mouse thigh infection model study was performed by NeoSome Life Sciences, LLC (Lexington, MA, USA) according to NeoSome Institutional Animal Care and Use Committee (IACUC) policies and guidelines as well as NIH’s Office of Laboratory Animal Welfare (OLAW) standards.
Neutropenic mouse thigh infection experiments were performed on female CD-1 mice (Charles River Laboratories, USA). To induce neutropenia, mice received two doses of cyclophosphamide on days −4 and −1 with 150 and 100 mg/kg delivered intraperitoneally (IP), respectively. The inoculum of the testing strain, S. aureus ATCC 700699-P1 (VISA), was prepared from overnight agar plate cultures. To prepare bacterial inoculums, a portion of the plate was resuspended in sterile saline and adjusted to an OD of 0.12 at 625 nm. Next, the resulted bacterial suspension was further diluted to reach an infecting inoculum of 6.0 × 10^5 cfu per each mouse. Plate counts of the inoculum were also performed in each case to confirm the inoculum concentration, and the actual inoculum size was 7.25 × 10^5 cfu/mouse. Mice were inoculated with 100 μL of the prepared bacterial suspension via an intramuscular injection into the right rear thigh. […] The test agent was then dosed via IV administration, to ensure optimal distribution, at 2, 10, and 18 h post-infection. Beginning at 2 h, post-infection mice were dosed with either test article or positive control antibiotic. Mice receiving test agents were dosed intravenously at 10 mL/kg. Linezolid was delivered as a SC dose to ensure optimized exposure, distribution, and efficacy. Four animals were dosed per group. One group of four mice was euthanized at the initiation of therapy (t = 2 h) and cfus determined. All remaining mice were euthanized at 26 h post-infection. At termination, thighs were aseptically excised, weighed, and homogenized to a uniform consistency in 2 mL of sterile saline. The homogenate was serially diluted and plated on bacterial growth media. The cfus were enumerated after overnight incubation.

P. aeruginosa DNA gyrase = biological target: T1, P. aeruginosa DNA gyrase (Pseudomonas aeruginosa, UniProt Q9I7C2); experiment: supercoiling HTS assay; format: biochemical
T1 construct: purchased Inspiralis
T1 sequence (Q9I7C2 whole entry): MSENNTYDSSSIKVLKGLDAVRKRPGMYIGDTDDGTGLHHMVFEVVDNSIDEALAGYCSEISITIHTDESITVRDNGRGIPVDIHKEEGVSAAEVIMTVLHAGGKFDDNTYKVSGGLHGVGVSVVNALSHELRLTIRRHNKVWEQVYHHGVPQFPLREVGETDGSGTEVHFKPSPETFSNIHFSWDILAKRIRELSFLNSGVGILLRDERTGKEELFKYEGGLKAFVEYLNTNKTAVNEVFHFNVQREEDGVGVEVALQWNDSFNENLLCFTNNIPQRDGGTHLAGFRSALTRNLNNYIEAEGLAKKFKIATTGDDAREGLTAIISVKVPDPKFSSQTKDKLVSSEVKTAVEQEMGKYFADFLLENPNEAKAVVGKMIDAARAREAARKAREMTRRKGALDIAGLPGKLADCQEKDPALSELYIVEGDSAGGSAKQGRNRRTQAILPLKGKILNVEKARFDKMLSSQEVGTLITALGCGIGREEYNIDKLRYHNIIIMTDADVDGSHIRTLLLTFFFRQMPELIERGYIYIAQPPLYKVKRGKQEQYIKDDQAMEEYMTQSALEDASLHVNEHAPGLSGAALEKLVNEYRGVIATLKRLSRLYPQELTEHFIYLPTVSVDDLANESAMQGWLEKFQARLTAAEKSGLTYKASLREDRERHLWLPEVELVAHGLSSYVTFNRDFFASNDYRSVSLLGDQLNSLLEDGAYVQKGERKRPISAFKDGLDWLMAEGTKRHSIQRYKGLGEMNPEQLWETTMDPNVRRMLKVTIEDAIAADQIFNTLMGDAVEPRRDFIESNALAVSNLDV
T1 sequence (P48372 whole entry, further chain): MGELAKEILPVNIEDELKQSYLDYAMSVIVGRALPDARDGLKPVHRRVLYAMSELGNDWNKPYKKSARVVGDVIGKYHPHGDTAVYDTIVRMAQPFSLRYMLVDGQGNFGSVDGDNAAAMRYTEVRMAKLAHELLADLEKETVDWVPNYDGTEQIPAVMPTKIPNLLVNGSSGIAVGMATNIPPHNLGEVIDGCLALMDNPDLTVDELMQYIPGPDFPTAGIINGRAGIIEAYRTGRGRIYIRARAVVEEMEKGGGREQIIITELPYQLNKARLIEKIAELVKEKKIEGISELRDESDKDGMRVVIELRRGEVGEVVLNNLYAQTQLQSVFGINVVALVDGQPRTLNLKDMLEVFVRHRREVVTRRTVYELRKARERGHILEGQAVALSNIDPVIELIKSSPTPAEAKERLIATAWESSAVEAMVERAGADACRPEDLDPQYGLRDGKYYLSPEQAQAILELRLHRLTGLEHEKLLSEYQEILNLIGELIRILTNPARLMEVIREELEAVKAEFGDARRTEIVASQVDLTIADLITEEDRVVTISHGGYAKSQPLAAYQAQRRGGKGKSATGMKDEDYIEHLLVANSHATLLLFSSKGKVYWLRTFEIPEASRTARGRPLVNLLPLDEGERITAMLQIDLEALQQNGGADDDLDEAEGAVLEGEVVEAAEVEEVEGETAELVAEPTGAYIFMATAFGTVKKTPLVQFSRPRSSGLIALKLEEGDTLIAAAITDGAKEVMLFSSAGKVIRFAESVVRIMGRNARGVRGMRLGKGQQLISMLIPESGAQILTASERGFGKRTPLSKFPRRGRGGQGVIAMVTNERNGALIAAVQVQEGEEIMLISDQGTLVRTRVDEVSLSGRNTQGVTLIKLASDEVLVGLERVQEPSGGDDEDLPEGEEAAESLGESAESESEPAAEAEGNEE
Experimental: The assay to determine IC50 values was performed using assay kits from Inspiralis in accordance with previously described procedures.[43] Seven concentrations of the inhibitors were used to determine IC50 values which were then calculated with GraphPad Prism 6.0 software. Three independent measurements were performed to determine IC50 values, and mean values are reported as the final result.

[2] = thermodynamic solubility in phosphate buffer, LC-MS/MS; settings: 100 mM phosphate buffer pH 7.4, 24 h, 37 °C
Experimental: 0.5 mL of 67 mM phosphate
(§7) in a rotational shaker (400 rpm) at 23 °C. After the incubation an aliquot of 200 µL was
(§8) 1 µL of the supernatant was transferred to 96-well plate in triplicate wells, diluted 100×
(§9) with acetonitrile/H2O (60/40) containing 50 nM warfarin as internal standard and analyzed
(§10) performed comparing to a separately constructed standard series (10 nM to 1000 nM).
(§11) shaker (900 rpm) at 37 °C. After the incubation an aliquot of 200 µL was transferred to a
(§12) conical glass insert and centrifuged for 30 min at 10 000 × g at 37 °C. The supernatant was
(§13) transferred to a new HPLC vial appropriately diluted (100×, 1000×, 5000×) with
(§14) acetonitrile/H2O (50/50) containing 50 nM warfarin as internal standard and analyzed by
(§15) performed comparing to a separately constructed standard curve between 3 nM to 20000

[3] = biological target: T2, human DNA topoisomerase IIα (Homo sapiens, UniProt P11388); experiment: DNA relaxation assay; format: biochemical
T2 construct: purchased Inspiralis
T2 sequence (P11388 whole entry): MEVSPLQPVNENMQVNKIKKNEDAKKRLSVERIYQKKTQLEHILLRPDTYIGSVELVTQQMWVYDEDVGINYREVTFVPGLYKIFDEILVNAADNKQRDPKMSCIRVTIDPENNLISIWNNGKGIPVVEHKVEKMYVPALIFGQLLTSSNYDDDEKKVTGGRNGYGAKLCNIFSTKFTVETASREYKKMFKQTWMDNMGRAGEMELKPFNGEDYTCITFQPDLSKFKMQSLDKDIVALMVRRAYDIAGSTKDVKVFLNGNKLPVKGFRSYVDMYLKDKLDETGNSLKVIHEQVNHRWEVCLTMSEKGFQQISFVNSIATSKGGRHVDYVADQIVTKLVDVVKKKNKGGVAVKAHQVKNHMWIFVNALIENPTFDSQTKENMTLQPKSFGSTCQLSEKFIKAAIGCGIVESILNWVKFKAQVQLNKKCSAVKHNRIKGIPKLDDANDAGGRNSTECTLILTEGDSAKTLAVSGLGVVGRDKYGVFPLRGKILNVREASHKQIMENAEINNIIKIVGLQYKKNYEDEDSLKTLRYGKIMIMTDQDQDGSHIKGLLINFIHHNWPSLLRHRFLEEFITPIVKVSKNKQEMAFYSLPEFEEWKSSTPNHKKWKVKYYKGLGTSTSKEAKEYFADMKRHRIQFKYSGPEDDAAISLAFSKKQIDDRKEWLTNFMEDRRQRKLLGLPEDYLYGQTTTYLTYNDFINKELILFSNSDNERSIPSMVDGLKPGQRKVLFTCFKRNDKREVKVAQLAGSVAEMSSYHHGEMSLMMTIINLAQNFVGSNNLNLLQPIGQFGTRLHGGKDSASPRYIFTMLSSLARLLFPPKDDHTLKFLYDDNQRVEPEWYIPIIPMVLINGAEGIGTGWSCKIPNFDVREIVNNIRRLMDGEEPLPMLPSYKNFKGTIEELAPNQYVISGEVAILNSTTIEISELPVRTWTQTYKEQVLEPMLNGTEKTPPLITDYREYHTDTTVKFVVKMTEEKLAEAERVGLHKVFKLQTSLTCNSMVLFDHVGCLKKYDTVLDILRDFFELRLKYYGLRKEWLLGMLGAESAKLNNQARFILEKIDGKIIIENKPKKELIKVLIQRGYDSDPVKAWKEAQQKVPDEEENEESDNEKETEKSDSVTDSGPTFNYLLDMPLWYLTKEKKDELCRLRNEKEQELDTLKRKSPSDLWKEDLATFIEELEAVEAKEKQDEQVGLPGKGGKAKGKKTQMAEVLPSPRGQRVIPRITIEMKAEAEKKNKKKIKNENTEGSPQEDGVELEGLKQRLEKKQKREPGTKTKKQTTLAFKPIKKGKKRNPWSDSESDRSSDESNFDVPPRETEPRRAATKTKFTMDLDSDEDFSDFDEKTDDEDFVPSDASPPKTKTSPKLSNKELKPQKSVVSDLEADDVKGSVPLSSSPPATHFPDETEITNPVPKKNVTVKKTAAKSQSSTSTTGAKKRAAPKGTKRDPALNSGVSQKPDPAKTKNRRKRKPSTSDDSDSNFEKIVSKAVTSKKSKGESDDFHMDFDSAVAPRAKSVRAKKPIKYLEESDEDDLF
Experimental: Seven concentrations of the inhibitors were used to determine IC50 values which were then calculated with GraphPad Prism 6.0 software. Three independent measurements were performed to determine IC50 values, and mean values are reported as the final result.

physchem = settings: pH 7.4
Experimental: 0.5 mL of 67 mM phosphate
as §7, §8, §9, §10, §11, §12, §13, §14, §15

A. baumannii ATCC 19606 = experiment: MIC broth microdilution (CLSI); format: cell-based; settings: Acinetobacter baumannii, ATCC19606; ATCC 19606 used for 7l, 8b, 14, 16b, 16c; read-out: MIC
Experimental: (§1) MICs (Tables 1 and S1–S3) were determined with a standard serial broth microdilution technique according to Clinical and Laboratory Standards Institute (CLSI) guidelines.[45] Cation-adjusted Mueller Hinton broth 2 (MHBII) was used for bacterial growth under standard laboratory conditions and for antimicrobial susceptibility tests. MHBII broth was prepared by dissolving 22 g of MHBII powder [containing beef extract (3 g), acid hydrolysate of casein (17.5 g), and starch (1.5 g); Becton Dickinson and Co.] in 1 L of water. To prepare MHBII agar, 14 g of agar (Bacto; Molar Chemicals) was added to 1 L of broth.
(§2) Bacterial strains were inoculated onto MHBII agar plates and grown overnight at 37 °C. Next, three individual colonies from each strain were inoculated into 1 mL of MHBII medium and propagated at 37 °C overnight, with agitation at 250 rpm. For Enterococcus sp., the cells were plated in brain–heart infusion [(BHI) medium] agar plates, and BHI broth was used to determine the MICs. […] The highest final DMSO concentration in the experiments was 0.64% (in the case of the 64 μg/mL concentration of the inhibitor). Following the dilutions, each well was seeded with 5 × 10^4 bacterial cells (in 100 μL final volume). Each measurement was performed in three parallel replicates, and to avoid possible edge effects in the microwell plates, the outside rows (A, H) were filled with sterile medium. Following the inoculations, the plates were covered with the lids and wrapped in polyethylene plastic bags, to minimize evaporation but to allow O2 transfer. The plates were incubated at 37 °C under continuous shaking at 150 rpm for 18 h. After incubation, the OD600 of each well was measured using a microplate reader (Synergy 2; Biotek). The MICs were defined as the antibiotic concentrations which inhibited the growth of the bacterial cultures; that is, the drug concentration where the average OD600 increment of the three technical replicates was below 1.5-fold the background OD increment.
(§3) cMIC, minimum inhibitory concentration
(§4) Bacterial strains that were used: S. aureus ATCC 29213, S. aureus (MRSA) ATCC 43300, S. aureus (VISA) ATCC 700699, E. faecalis ATCC 29212, E. faecium ATCC 700221,
(§5) E. coli ATCC 25922, P. aeruginosa ATCC 27853 (PAO1 for compounds 7l, 8b, 14), A. baumannii ATCC 17978 (ATCC 19606 for compounds 7l, 8b, 14), K. pneumoniae ATCC
(§6) Measurements were performed according to the Clinical and Laboratory Standards Institute guidelines, with three independent measurements.

P. aeruginosa PAO1 = experiment: MIC broth microdilution (CLSI); format: cell-based; settings: Pseudomonas aeruginosa; PAO1 used for 7l, 8b, 14, 16b, 16c
Experimental: as §1, §2, §3, §4, §5, §6

K. pneumoniae ATCC 13883 = experiment: MIC broth microdilution (CLSI); format: cell-based; settings: Klebsiella pneumoniae, ATCC13883; ATCC 13883 used for 7l, 8b, 14, 16b, 16c
Experimental: as §1, §2, §3, §4, §5, §6

In the case of Cc1[nH]c(C(=O)Nc2nc3c(N4CCOCC4)cc(C(=O)O)cc3s2)c(Cl)c1Cl [7a, 2-(3,4-Dichloro-5-methyl-1H-pyrrole-2-carboxamido)-4-morpholinobenzo[d]thiazole-6-carboxylic Acid], the “CFU/ g of thigh, single animals” value ([1]; 10 mg/kg) is reported as 1.82E+08 and 2.23E+08 and 2.51E+08 and 1.42E+08, the “log CFU, single animals” value ([1]; 10 mg/kg) is reported as 8.26 and 8.35 and 8.40 and 8.15 and the “Change in log10CFU/gr of thigh from 2 hour control” value ([1]; 10 mg/kg TID) is reported as 2.00. For the same compound, the “Change in log10CFU/gr of thigh from 26 hours control” value ([1]; 10 mg/kg TID) was 0.19, the “Average log10CFU/gr of thigh” value ([1]; 10 mg/kg TID) was 8.29 and the “CFU/ g of thigh, single animals” value ([1]; 25 mg/kg) was 4.64E+05 and 4.16E+06 and 1.83E+07 and 9.23E+06. The “log CFU, single animals” value ([1]; 25 mg/kg) was 5.67 and 6.62 and 7.26 and 6.97, the “reduction compared to 26 h controls” value ([1]; 25 mg/kg IV) was 1.47 log10 cfu and the “Change in log10CFU/gr of thigh from 2 hour control” value ([1]; 25 mg/kg TID) was 0.33. For the same compound, the “Change in log10CFU/gr of thigh from 26 hours control” value ([1]; 25 mg/kg TID) was -1.47, the “Average log10CFU/gr of thigh” value ([1]; 25 mg/kg TID) was 6.63 and the “CFU/ g of thigh, single animals” value ([1]; 50 mg/kg) was 1.72E+05 and 1.68E+05 and 8.81E+05 and 8.82E+04. For the same compound, the “log CFU, single animals” value ([1]; 50 mg/kg) was 5.24 and 5.23 and 5.95 and 4.95, the “reduction compared to 26 h controls” value ([1]; 50 mg/kg IV) was 2.76 log10 cfu and the “reduction compared to 2 hour infection controls” value ([1]; 50 mg/kg IV (TID)) was 0.96 log10 cfu. For the same compound, the “Change in log10CFU/gr of thigh from 2 hour control” value ([1]; 50 mg/kg TID) was -0.96, the “Change in log10CFU/gr of thigh from 26 hours control” value ([1]; 50 mg/kg TID) was -2.76 and the “Average log10CFU/gr of thigh” value ([1]; 50 mg/kg TID) was 5.34. The IC50 (P. aeruginosa DNA gyrase) was < 0.01 µM, the “thermodynamic solubility, second method” value [2] was 167.9 µM (≈ 76.4 µg/mL) and the IC50 [3] was 17 µM. For the same compound, the solubility thermodynamic at 24 h (physchem) was 168 µM (≈ 76.5 µg/mL).

In the case of Cc1[nH]c(C(=O)Nc2nc3c(N4CCOCC4)cc(C(=O)O)cc3s2)cc1F [16b, 2-(4-Fluoro-5-methyl-1H-pyrrole-2-carboxamido)-4-morpholinobenzo[d]thiazole-6-carboxylic Acid], the MIC (A. baumannii ATCC 19606) is reported as > 64 µg/mL, the MIC (P. aeruginosa PAO1) is reported as > 64 µg/mL and the MIC (K. pneumoniae ATCC 13883) is reported as > 64 µg/mL.
